Laboratory results reported in patent US11090304B2 (Amgen Inc., priority 2018, dated 2021).
Like-named read-outs stand apart in the source and are kept apart here.

Tests used:
[1] = test system: Phosphorylation of ERK1/2 in MIA PaCa-2 cells; experiment: Phospho-ERK1/2 MSD assay in MIA PaCa-2 cells; format: cell-based; conditions: read-out: p-ERK IC50 (2 h; MIA PaCa-2), 2 h compound treatment
Procedure, shortened: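 In the procedure, cells were plated a day ahead at 25,000 per well. Next, a dilution series of compound in growth medium was added for 2 or 4 h. EGF (10 ng/mL) stimulation for 10 min preceded washing and RIPA lysis. Lysate phospho-ERK1/2 was read by MSD, with IC50 derived by 4-parameter logistic analysis.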

[2] = biological target: GDP-bound KRAS protein (aa 1-169), containing both G12C and C118A amino acid substitutions (Homo sapiens, UniProt P01116, C118A/G12C); experiment: Coupled nucleotide exchange assay (SOS-mediated, AlphaScreen); format: biochemical; conditions: 5 min compound pre-incubation; for IC50: read-out: Coupled exchange IC50 (5 min)
GDP-bound KRAS protein (aa 1-169), containing both G12C and C118A amino acid substitutions, sequence (P01116 1-169 isoform P01116-2 G12C/C118A): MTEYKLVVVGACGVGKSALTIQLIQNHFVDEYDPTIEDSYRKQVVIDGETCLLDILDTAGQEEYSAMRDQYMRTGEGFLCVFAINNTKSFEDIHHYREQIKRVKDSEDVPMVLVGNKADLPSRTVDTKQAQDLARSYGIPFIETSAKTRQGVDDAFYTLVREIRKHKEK

SMILES	IC50 ([1]; Homo sapiens, MIA PaCa-2, 2 h) [nM]	Coupled exchange IC50 (5 min) [2]	IC50 [1] [nM]	IC50 [2] [nM]
C=CC(=O)N1CCN(c2nc(=O)n(-c3c(C)ccnc3C(C)C)c3nc(-c4cc(OC)ccc4F)c(Cl)cc23)[C@@H](C)C1 (atropisomer, axis not shown; (M)) [Example 73-6, (M)-6-chloro-7-(2-fluoro-5-methoxyphenyl)-1-(4-methyl-2-(2-propanyl)-3-pyridinyl)-4-((2S)-2-methyl-4-(2-propenoyl)-1-piperazinyl)pyrido[2,3-d]pyrimidin-2(1H)-one]	104	0.059 | nda μM	–	–
C=CC(=O)N1CCN(c2nc(=O)n(-c3c(C)ccnc3C(C)C)c3nc(-c4cc(OC(F)(F)F)ccc4F)c(Cl)cc23)[C@@H](C)C1 (atropisomer, axis not shown; (M)) [Example 73-7, (M)-6-chloro-7-(2-fluoro-5-(trifluoromethoxy)phenyl)-1-(4-methyl-2-(2-propanyl)-3-pyridinyl)-4-((2S)-2-methyl-4-(2-propenoyl)-1-piperazinyl)pyrido[2,3-d]pyrimidin-2(1H)-one]	375	0.241 | nda μM	–	–
C=CC(=O)N1CCN(c2nc(=O)n(-c3c(C)ccnc3C(C)C)c3nc(-c4cc(C(F)(F)F)ccc4F)c(Cl)cc23)[C@@H](C)C1 (atropisomer, axis not shown; (M)) [Example 73-8, (M)-6-chloro-7-(2-fluoro-5-(trifluoromethyl)phenyl)-1-(4-methyl-2-(2-propanyl)-3-pyridinyl)-4-((2S)-2-methyl-4-(2-propenoyl)-1-piperazinyl)pyrido[2,3-d]pyrimidin-2(1H)-one]	653	0.236 | nda μM	–	–
C=CC(=O)N1CCN(c2nc(=O)n(-c3c(C)ccnc3C(C)C)c3nc(-c4cc(C5CC5)ccc4F)c(Cl)cc23)[C@@H](C)C1 (atropisomer, axis not shown; (M)) [Example 73-9, (M)-6-chloro-7-(5-cyclopropyl-2-fluorophenyl)-1-(4-methyl-2-(2-propanyl)-3-pyridinyl)-4-((2S)-2-methyl-4-(2-propenoyl)-1-piperazinyl)pyrido[2,3-d]pyrimidin-2(1H)-one]	281	0.06 | nda μM	–	–
C=CC(=O)N1CCN(c2nc(=O)n(-c3c(C)ccnc3C(C)C)c3nc(-c4cc(C(=O)NC5CC5)ccc4F)c(Cl)cc23)[C@@H](C)C1 (atropisomer, axis not shown; (M)) [Example 73-10, (M)-3-(6-chloro-1-(4-methyl-2-(2-propanyl)-3-pyridinyl)-4-((2S)-2-methyl-4-(2-propenoyl)-1-piperazinyl)-2-oxo-1,2-dihydropyrido[2,3-d]pyrimidin-7-yl)-N-cyclopropyl-4-fluorobenzamide]	544	0.385 | nda μM	–	–
C=CC(=O)N1C[C@@H](C)N(c2nc(=O)n(-c3c(C)ccnc3C(C)C)c3nc(-c4c(N)cccc4F)c(Cl)cc23)[C@@H](C)C1 (atropisomer, axis not shown; (M)) [Example 73-12, (M)-7-(2-amino-6-fluorophenyl)-6-chloro-4-(cis-2,6-dimethyl-4-(2-propenoyl)-1-piperazinyl)-1-(4-methyl-2-(2-propanyl)-3-pyridinyl)pyrido[2,3-d]pyrimidin-2(1H)-one]	10	0.01 | nda μM	–	–
C=CC(=O)N1C[C@@H](C)N(c2nc(=O)n(-c3c(C)ccnc3C(C)C)c3nc(-c4c(O)cccc4F)c(Cl)cc23)[C@@H](C)C1 (atropisomer, axis not shown; (M)) [Example 73-13, (M)-6-chloro-4-(cis-2,6-dimethyl-4-(2-propenoyl)-1-piperazinyl)-7-(2-fluoro-6-hydroxyphenyl)-1-(4-methyl-2-(2-propanyl)-3-pyridinyl)pyrido[2,3-d]pyrimidin-2(1H)-one]	17	0.023 | nda μM	–	–
C=CC(=O)N1C[C@H](C)N(c2nc(=O)n(-c3c(C)ccnc3C(C)C)c3nc(-c4c(N)cccc4F)c(Cl)cc23)[C@@H](C)C1 (atropisomer, axis not shown; (M)) [Example 73-15, (M)-7-(2-amino-6-fluorophenyl)-6-chloro-4-((2S,6S)-2,6-dimethyl-4-(2-propenoyl)-1-piperazinyl)-1-(4-methyl-2-(2-propanyl)-3-pyridinyl)pyrido[2,3-d]pyrimidin-2(1H)-one]	4	0.015 | nda μM	–	–

The remaining lines, values ahead:

IC50 ([1]; Homo sapiens, MIA PaCa-2, 2 h) [nM]	Coupled exchange IC50 (5 min) [2]	IC50 [1] [nM]	IC50 [2] [nM]	SMILES
7	0.019 | nda μM	–	–	C=CC(=O)N1C[C@H](C)N(c2nc(=O)n(-c3c(C)ccnc3C(C)C)c3nc(-c4c(O)cccc4F)c(Cl)cc23)[C@@H](C)C1 (atropisomer, axis not shown; (M)) [Example 73-16, (M)-6-chloro-4-((2S,6S)-2,6-dimethyl-4-(2-propenoyl)-1-piperazinyl)-7-(2-fluoro-6-hydroxyphenyl)-1-(4-methyl-2-(2-propanyl)-3-pyridinyl)pyrido[2,3-d]pyrimidin-2(1H)-one]
–	–	49	48	C=CC(=O)N1C[C@@H](C)N(c2nc(=O)n(-c3c(C)ccnc3C(C)C)c3nc(-c4c(O)cccc4F)c(F)cc23)[C@@H](C)C1 (atropisomer, axis not shown; (M)) [Example 75-1, (M)-4-(cis-2,6-Dimethyl-4-(2-propenoyl)-1-piperazinyl)-6-fluoro-7-(2-fluoro-6-hydroxyphenyl)-1-(4-methyl-2-(2-propanyl)-3-pyridinyl)pyrido[2,3-d]pyrimidin-2(1H)-one]
–	–	49	213	C=CC(=O)N1CCN(c2nc(=O)n(-c3c(C)ccnc3C(C)C)c3nc(-c4ccccc4F)c(Cl)cc23)C[C@H]1C (atropisomer, axis not shown; (M)) [Example 78-1, (M)-6-Chloro-7-(2-fluorophenyl)-1-(4-methyl-2-(2-propanyl)-3-pyridinyl)-4-((3R)-3-methyl-4-(2-propenoyl)-1-piperazinyl)pyrido[2,3-d]pyrimidin-2(1H)-one]
–	–	106	77	C=CC(=O)N1CCN(c2nc(=O)n(-c3c(C)ccnc3C(C)C)c3nc(-c4c(C)ccc5[nH]ncc45)c(Cl)cc23)[C@@H](C)C1 (atropisomer, axis not shown; (M)) [Example 82-1, (M)-6-Chloro-7-(5-methyl-1H-indazol-4-yl)-1-(4-methyl-2-(2-propanyl)-3-pyridinyl)-4-((2S)-2-methyl-4-(2-propenoyl)-1-piperazinyl)pyrido[2,3-d]pyrimidin-2(1H)-one]
95	0.045 | nda μM	–	–	C=CC(=O)N1CCN(c2nc(=O)n(-c3c(C)ccnc3C(C)C)c3nc(-c4c(O)cccc4F)c(Cl)cc23)C[C@H]1C (atropisomer, axis not shown; (M)) [Example 129, (M)-6-Chloro-7-(2-fluoro-6-hydroxyphenyl)-1-(4-methyl-2-(2-propanyl)-3-pyridinyl)-4-((3R)-3-methyl-4-(2-propenoyl)-1-piperazinyl)pyrido[2,3-d]pyrimidin-2(1H)-one]
–	–	3920	952	Cc1ccnc(C(C)C)c1-n1c(=O)nc(N2CCN(C(=O)/C=C/CN(C)C)C[C@@H]2C)c2cc(F)c(-c3c(O)cccc3F)nc21 (atropisomer, axis not shown; (M)) [Example 145, (M)-4-((2S)-4-((2E)-4-(Dimethylamino)-2-butenoyl)-2-methyl-piperazinyl)-6-fluoro-7-(2-fluoro-6-hydroxyphenyl)-1-(4-methyl-2-(2-propanyl)-3-pyridinyl)pyrido[2,3-d]pyrimidin-2(1H)-one]
